Earlier results as cited in article PMC9762682, “Tocotrienols: Exciting Biological and Pharmacological Properties of Tocotrienols and Naturally Occurring Compounds, Part II” (Annals of clinical case reports, 2022).
Read-outs that look alike come from different tables or passages of the source.

Key:
plasma miRNAs = tested on: plasma miRNAs; set-up: method as in ref 14 = [14]; PMID 27493840; doi:10.4172/2155-9880.1000434; 14. Qureshi AA , Khan DA , Saleem S , Silswal N , Trias AM , Tan B , Pharmacokinetics and bioavailability of Annatto δ-tocotrienol in healthy fed subjects . J Clin Exp Cardiol . 2015; 6 : 11 . 10.417; conditions: for plasma miR122a / plasma miR-1 / plasma miR-7 / plasma miR-9 / plasma miR-15b / plasma miR-17-5p / plasma miR-19a / plasma miR-19b / plasma miR-24 / plasma miR-26a / plasma miR-34a / plasma miR-106a / plasma miR-107 / plasma miR-132 / plasma miR-143 / plasma miR-145 / plasma miR-148a / plasma miR-181a / plasma miR-182 / plasma miR-192 / plasma miR-194 / plasma miR-196a / plasma miR-199a / plasma miR-204 / plasma miR-205 / plasma miR-222 / plasma miR-342: 0-h = 100
[1] = tested on: plasma TNF-α, IL-2, IL-4, IL-6, IL-8, IL-10; set-up: method as in earlier work; conditions: 250 mg/d + AHA Step-1 diet; baseline = 100
[2] = δ-tocotrienol treatment, pharmacokinetic study

CC(C)=CCC/C(C)=C/CC/C(C)=C/CC[C@]1(C)CCc2cc(O)cc(C)c2O1 [δ-Tocotrienol]
plasma miR122a (plasma miRNAs; 3-h, 125 mg δ-tocotrienol): 166%
plasma miR-1 (plasma miRNAs; 3-h, 125 mg δ-tocotrienol): 78%
plasma miR-7 (plasma miRNAs; 3-h, 125 mg δ-tocotrienol): 94%
plasma miR-9 (plasma miRNAs; 3-h, 125 mg δ-tocotrienol): 88%
plasma miR-15b (plasma miRNAs; 3-h, 125 mg δ-tocotrienol): 110%
plasma miR-17-5p (plasma miRNAs; 3-h, 125 mg δ-tocotrienol): 106%
plasma miR-19a (plasma miRNAs; 3-h, 125 mg δ-tocotrienol): 95%
plasma miR-19b (plasma miRNAs; 3-h, 125 mg δ-tocotrienol): 91%
plasma miR-24 (plasma miRNAs; 3-h, 125 mg δ-tocotrienol): 77%
plasma miR-26a (plasma miRNAs; 3-h, 125 mg δ-tocotrienol): 80%
plasma miR-34a (plasma miRNAs; 3-h, 125 mg δ-tocotrienol): 72%
plasma miR-106a (plasma miRNAs; 3-h, 125 mg δ-tocotrienol): 74%
plasma miR-107 (plasma miRNAs; 3-h, 125 mg δ-tocotrienol): 156%
plasma miR-132 (plasma miRNAs; 3-h, 125 mg δ-tocotrienol): 199%
plasma miR-143 (plasma miRNAs; 3-h, 125 mg δ-tocotrienol): 63%
plasma miR-145 (plasma miRNAs; 3-h, 125 mg δ-tocotrienol): 54%
plasma miR-148a (plasma miRNAs; 3-h, 125 mg δ-tocotrienol): 208%
plasma miR-181a (plasma miRNAs; 3-h, 125 mg δ-tocotrienol): 48%
plasma miR-182 (plasma miRNAs; 3-h, 125 mg δ-tocotrienol): 76%
plasma miR-192 (plasma miRNAs; 3-h, 125 mg δ-tocotrienol): 28%
plasma miR-194 (plasma miRNAs; 3-h, 125 mg δ-tocotrienol): 50%
plasma miR-196a (plasma miRNAs; 3-h, 125 mg δ-tocotrienol): 65%
plasma miR-199a (plasma miRNAs; 3-h, 125 mg δ-tocotrienol): 81%
plasma miR-204 (plasma miRNAs; 3-h, 125 mg δ-tocotrienol): 45%
plasma miR-205 (plasma miRNAs; 3-h, 125 mg δ-tocotrienol): 39%
plasma miR-222 (plasma miRNAs; 3-h, 125 mg δ-tocotrienol): 55%
plasma miR-342 (plasma miRNAs; 3-h, 125 mg δ-tocotrienol): 70%
plasma miR122a (plasma miRNAs; 6-h, 500 mg δ-tocotrienol): 196%
plasma miR-1 (plasma miRNAs; 6-h, 500 mg δ-tocotrienol): 63%
plasma miR-7 (plasma miRNAs; 6-h, 500 mg δ-tocotrienol): 85%
plasma miR-9 (plasma miRNAs; 6-h, 500 mg δ-tocotrienol): 44%
plasma miR-15b (plasma miRNAs; 6-h, 500 mg δ-tocotrienol): 132%
plasma miR-17-5p (plasma miRNAs; 6-h, 500 mg δ-tocotrienol): 168%
plasma miR-19a (plasma miRNAs; 6-h, 500 mg δ-tocotrienol): 36%
plasma miR-19b (plasma miRNAs; 6-h, 500 mg δ-tocotrienol): 70%
plasma miR-24 (plasma miRNAs; 6-h, 500 mg δ-tocotrienol): 45%
plasma miR-26a (plasma miRNAs; 6-h, 500 mg δ-tocotrienol): 62%
plasma miR-34a (plasma miRNAs; 6-h, 500 mg δ-tocotrienol): 59%
plasma miR-106a (plasma miRNAs; 6-h, 500 mg δ-tocotrienol): 56%
plasma miR-107 (plasma miRNAs; 6-h, 500 mg δ-tocotrienol): 173%
plasma miR-132 (plasma miRNAs; 6-h, 500 mg δ-tocotrienol): 145%
plasma miR-143 (plasma miRNAs; 6-h, 500 mg δ-tocotrienol): 36%
plasma miR-145 (plasma miRNAs; 6-h, 500 mg δ-tocotrienol): 44%
plasma miR-148a (plasma miRNAs; 6-h, 500 mg δ-tocotrienol): 233%
plasma miR-181a (plasma miRNAs; 6-h, 500 mg δ-tocotrienol): 21%
plasma miR-182 (plasma miRNAs; 6-h, 500 mg δ-tocotrienol): 64%
plasma miR-192 (plasma miRNAs; 6-h, 500 mg δ-tocotrienol): 21%
plasma miR-194 (plasma miRNAs; 6-h, 500 mg δ-tocotrienol): 21%
plasma miR-196a (plasma miRNAs; 6-h, 500 mg δ-tocotrienol): 43%
plasma miR-199a (plasma miRNAs; 6-h, 500 mg δ-tocotrienol): 65%
plasma miR-204 (plasma miRNAs; 6-h, 500 mg δ-tocotrienol): 41%
plasma miR-205 (plasma miRNAs; 6-h, 500 mg δ-tocotrienol): 45%
plasma miR-222 (plasma miRNAs; 6-h, 500 mg δ-tocotrienol): 51%
plasma miR-342 (plasma miRNAs; 6-h, 500 mg δ-tocotrienol): 52%
expression of miR-107, miR-122a, and miR-132 (plasma miRNAs; [2]): up-regulated
gene expression of miR-34a (plasma miRNAs; [2]): down-regulated
plasma IL-2 [1]: 55.5 ± 0.71
plasma IL-4 [1]: 49.0 ± 1.41
plasma IL-6 [1]: 38.5 ± 2.21
plasma IL-8 [1]: 43.5 ± 0.71
plasma IL-10 [1]: 63.5 ± 2.12
plasma TNF-α [1]: 48.5 ± 0.7
